{
  "source": "patent US11980774B2",
  "about": "“Illumination devices and related methods for phototherapeutic light treatments in the presence of vitamins” (priority 2021, dated 2024)",
  "tested_on": "New York variant of SARS-CoV-2 (SARS-CoV-2 NY)",
  "experiment": "425 nm light inhibition of SARS-CoV-2 NY in the presence of riboflavin in artificial saliva, virus titer",
  "assay_type": "cell-based",
  "conditions": "FIG. 2",
  "data": [
    {"molecule": "Cc1cc2nc3c(=O)[nH]c(=O)nc-3n(C[C@H](O)[C@H](O)[C@H](O)CO)c2cc1C", "note": "[riboflavin]", "values": [
      {"measurement": "change in SARS-CoV-2 NY viral load compared with the 0 μM RFN sample", "setting": "10 μM RFN in artificial saliva, 425 nm light, beginning with doses as low as 3 J/cm^2", "result": "notable decreases"},
      {"measurement": "viral load of SARS-CoV-2 NY after treatment", "setting": "10 μM RFN, 425 nm light 15 J/cm^2", "result": "below measurement background levels"}
    ]}
  ]
}
